From patent US8541394B2, “Aminoglycoside antibiotics” (Meiji Seika Pharma Co., Ltd., priority 2006, dated 2013)
Values after ≈ are worked out from the molar mass of the structure shown.

Legend:
[1] = test system: clinically isolated MRSA strain (n=9), which has low sensitivity to arbekacin; assay: Antimicrobial activity (MIC), agar plate dilution method, MRSA with low sensitivity to arbekacin; type: cell-based, methicillin-resistant Staphylococcus aureus (MRSA); conditions: Staphylococcus aureus, clinically isolated MRSA strain (n=9) with low sensitivity to arbekacin, read-out: minimal inhibitory concentration (MIC)
Method: MIC of the compound represented by formula (I) produced in Example 1 against an MRSA strain, specifically a clinically isolated MRSA strain (n=9), which has low sensitivity to arbekacin and against which the minimal inhibitory concentration (MIC, μg/mL) is 4 to 8, was measured by an agar plate dilution method according to the standard method of Japan Society of Chemotherapy (Chemotherapy, Vol. 29, pp. 76 to 79, 1981).

kidney of normal mice = conditions: mouse, in vivo; for Amount of NAG in urine: ip, 120 mg/kg/day
Method: An evaluation system of influence on the kidney was constructed based on renal disease model preparation method using gentamicin (KIDNEY AND DIALYSIS, Vol. 31, 1991, extra edition, “Renal Disease Model”, p. 423 “Drug-induced Renal Damage and its Examination Method,” Kidney and Dialysis Editorial Committee, published by TOKYOIGAKUSYA). The influence of the compound represented by formula (I) produced in Example 1 on the kidney was evaluated using this evaluation system. A physiological saline administration group and an arbekacin administration group were set as control groups. Each group consisted of four mice (Crj: CD-1 (ICR) female mice of eight weeks old).
In the above evaluation system, the evaluation of nephrotoxicity was carried out using NAG as an index. NAG exists in lysosome in each tissue of humans and animals, is an enzyme, which converts a mucopolysaccharide to a glycoprotein, for example, converts β-N-acetyl-D-glucosaminide to β-N-acetyl-D-glucosamine, and is plentifully present in proximal uriniferous tubule epithelial cells of the kidney in which aminoglycoside antibiotics are particularly accumulated. When the kidney, especially its proximal uriniferous tubule is damaged, NAG is released into urine to increase the amount of NAG in the urine. Accordingly, the increase in the amount of NAG in urine is considered to reflect proximal uriniferous tubule damage and is adopted as one of biochemical markers for estimating the level of renal insufficiency in clinical test items. The amount of NAG is measured by an examination method, for example, an MCP-NAG method (Outline of Latest Internal Medicine, Vol. 4, Clinical Laboratory—Kensa No Susumekata To Deta No Yomikata (How To Forward Examination and How To Read Data)—<Naika Soron 4 (General Remarks Of Internal Medicine 4> p. 274, Imura et al. (ed.), published by Nakayama Syoten Co., Ltd., 1994).
A solution of physiological saline of the compound according to the present invention having a concentration of 12 mg/mL was administered to the mice in each group at a dose of 120 mg/kg/day (in two divided doses; morning and afternoon) for 4 days by repeated intraperitoneal administration. Naturally excreted urine was collected for about 24 hr from the completion of the administration in the morning on day 4, and the amount of NAG in the urine was measured by the MCP-NAG method. The same treatment was carried out for the physiological saline administration group and the arbekacin administration group.
The influence of arbekacin and an arbekacin analogue TS2037 (5,4″-diepiarbekacin) produced according to the description of WO 2005/070945 on the kidney was evaluated in the same manner as in Test Example 3. […]

[2] = test system: clinically isolated MRSA strain, which has high resistance to arbekacin; assay: Antimicrobial activity (MIC), agar plate dilution method, MRSA with high resistance to arbekacin; type: cell-based, methicillin-resistant Staphylococcus aureus (MRSA); conditions: Staphylococcus aureus, different from Test Example 1
[3] = test system: proximal uriniferous tubule epithelial cells of the kidney of pigs; conditions: pig kidney proximal uriniferous tubule epithelial cells; compared with arbekacin; 44th ICAAC (2004) subject No. F-716; cited from earlier work

| MIC [1] [µg/mL] | Amount of NAG in urine (kidney of normal mice) [mIU] | MIC [2] [µg/mL] | amount of NAG in the urine (kidney of normal mice) [mIU] | SMILES | nephrotoxicity using NAG as an index [3] |
| --- | --- | --- | --- | --- | --- |
| 0.5 to 2 | 74.7 |  |  | NCC[C@H](O)C(=O)NC1C(O)[C@H](N)C(O[C@H]2OC(CN)CCC2N)C(O)[C@H]1O[C@H]1OC(CO)[C@@H](O)C(N)C1O (stereo in doubt) [Compound represented by formula (I), 2-Hydroxyarbekacin] |  |
| 4 to 8 (≈ 7.24 to 14.5 µM) | 135.0 | 128 (≈ 232 µM) | 168.5 | NCC[C@H](O)C(=O)N[C@@H]1C[C@H](N)[C@@H](O[C@H]2O[C@H](CN)CC[C@H]2N)[C@H](O)[C@H]1O[C@H]1O[C@H](CO)[C@@H](O)[C@H](N)[C@H]1O [Arbekacin, (S)-1-N-(4-amino-2-hydroxybutyryl)dibekacin] |  |
|  |  |  | 358.8 | NCC[C@H](O)C(=O)NC1C[C@H](N)C(O[C@H]2OC(CN)CCC2N)C(O)[C@H]1O[C@H]1OC(CO)[C@H](O)C(N)C1O (some centres unmarked) [TS2037, 5,4″-diepiarbekacin] | higher than that of arbekacin |
